Assay results: patent US20030086987A1, “Salvianolic acid B” (priority 2001, published 2003)

Experiments:
[1] = tested on: New Zealand White rabbits; assay: Intima/media area ratio in cholesterol-fed rabbits after femoral artery denudation; assay type: in vivo; details: 2% cholesterol diet, six weeks, probucol 1.5 g/day, salvianolic acid B 375 mg/day; for ratio of the intima area to the media area, thoracic aorta section: CT group 0.1; for ratio of the intima area to the media area, aortic arch section: CT group 0.22; for ratio of the intima area to the media area, abdominal aorta section: CT group 0.58
Protocol: New Zealand White rabbits were randomly divided into three groups. […] Another group was fed with the control diet containing 1.5 g/day probucol (P group), and the third group was fed with the control diet containing 375 mg/day salvianolic acid B (Sal B group). After being fed for three weeks, all rabbits underwent a femoral artery denudation. After the operation, the diet fed to each group was maintained for anther three weeks. […] Thin sections (5 μm thick) were stained with Mayer's hematoxylin-eosin solution. […] See, e.g., Gordon et al. (1992) Proc […] USA 89: 11312-11316. In the CT group, the ratio of the intima area to the media area of the aortic arch section was 0.22 (±0.04).

[2] = tested on: Human aortic smooth muscle cells (HASMCs); assay: Rescue of oxLDL induced cell death, MTT assay; assay type: cell-based; details: then 40 μg/mL oxLDL for 24 hr, oxLDL alone 23.5%
Protocol: Human aortic smooth muscle cells (HASMCs, Cascade Biologics, Inc. Portland, Oreg.) were cultured in Medium 231 (Cascade Biologics, Inc.), supplemented with 5% smooth muscle growth serum (SMGS), 100 untis/mL penicillin, 100 μg/mL streptomycin, 1.25 μ/mL Fungizone (amphotericin B) at 37° C. in 5% CO2 saturated humidity atmosphere. The medium was changed every 4 days, and cells were detached by treatment with 0.05% trypsin, 0.02% EDTA solutions. […] Before each experiment, the medium was removed, and cells were washed and then cultured in serum-free medium containing the supplements indicated above but without SMGS. […] Then, 40 μg/mL oxLDL was added to the incubated medium for another 24 hr. The cytotoxic effect can be determined using the 3-(4,5-dimethylthiazol-2-yl)-2,5-diphenyltetrazolium bromide (MTT) assay method described in Boyd (In Principle of Practice of Oncology, […]., and Rosenberg, S. A. (Eds) Vol. 3, PPO Update, No. 10, 1989).

caspase-3 = assay: Inhibition of oxLDL induced caspase-3 activation, Western blot in HASMCs; assay type: cell-based, Human; details: 1 or 10 μg/mL for 24 hr, then 20 μg/mL oxLDL for 24 hr
Protocol: Human aortic smooth muscle cells (HASMCs, Cascade Biologics, Inc. Portland, Oreg.) were cultured in Medium 231 (Cascade Biologics, Inc.), supplemented with 5% smooth muscle growth serum (SMGS), 100 untis/mL penicillin, 100 μg/mL streptomycin, 1.25 μ/mL Fungizone (amphotericin B) at 37° C. in 5% CO2 saturated humidity atmosphere. The medium was changed every 4 days, and cells were detached by treatment with 0.05% trypsin, 0.02% EDTA solutions. […] Before each experiment, the medium was removed, and cells were washed and then cultured in serum-free medium containing the supplements indicated above but without SMGS. […] The sample solution was heated at 100° C. for 5 min, cooled down to room temperature, and subjected to 12% SDS-polyacrylamide gel electrophoresis. Then, proteins were transferred to PVDF membranes, blocked with 5% nonfat milk in Tris-buffered saline-Tween 20 (0.1%) at room temperature for 2 hr, and incubated overnight at 4° C. with […] anti-caspase-3 antibody (dilution 1:1000). The membranes were washed three times in Tris-buffered saline-Tween 20, and antibody reactions were detected using horseradish peroxidase-conjugated goat anti-rabbit IgG (0.2 μg/mL) and LumiGLO chemiluminescent detection reagents (Bradford (1976) Analytical Biochem 72: 248-254). Activated caspase-3 (17 kD) was detected in HASMCs after oxLDL treatment.

IL-1β = assay: Inhibition of oxLDL induced IL-1β production in HASMCs, sandwich ELISA; assay type: cell-based, Human; details: 1, 2.5 and 10 μg/mL for 24 hr, then 20 μg/mL oxLDL for 24 hr
Protocol: (§1) Human aortic smooth muscle cells (HASMCs, Cascade Biologics, Inc. Portland, Oreg.) were cultured in Medium 231 (Cascade Biologics, Inc.), supplemented with 5% smooth muscle growth serum (SMGS), 100 untis/mL penicillin, 100 μg/mL streptomycin, 1.25 μ/mL Fungizone (amphotericin B) at 37° C. in 5% CO2 saturated humidity atmosphere. The medium was changed every 4 days, and cells were detached by treatment with 0.05% trypsin, 0.02% EDTA solutions. […] Before each experiment, the medium was removed, and cells were washed and then cultured in serum-free medium containing the supplements indicated above but without SMGS. […] IL-1 production was determined with a sandwich ELISA using anti-IL-1 antibodies (e.g., IL-1β and IL-1ra ELISA kits from R&D Systems and Endogen, Inc. respectively).

IL-1ra = assay: Inhibition of oxLDL induced IL-1ra production in HASMCs, sandwich ELISA; assay type: cell-based, Human; details: 1, 2.5 and 10 μg/mL for 24 hr, then 20 μg/mL oxLDL for 24 hr
Protocol: as §1

apoE (−) mice = assay: Atherosclerotic area in the apoE (−) mice; assay type: in vivo; details: 0.15% cholesterol diet with 0.25% salvianolic acid B or 2% SAGE, 113 days
Protocol: 25-week apoE (−) mice from Jackson Laboratory were randomly divided into three groups. Animals in the control group (CT group) were fed with a diet containing 0.15% cholesterol (w/w) (a control diet). Second group (SB group) was fed with the control diet containing 0.25% salvianolic acid B (w/w); and third group (SAGE group) was fed with the control diet containing 2% SAGE (w/w). The feeding period was 113 days. SAGE was prepared as follows:
Salvia miltiorrhiza extract was obtained from extracts of the sliced and ground roots of Salvia miltiorrhiza by using an aqueous ethanol solution (water: ethanol =4:1, v/v). The weight to volume ration of Salvia miltiorrhiza to extraction solvent was 1:10 (w/v).
Angelica sinensis extract was obtained from ethanolic extracts (1:10, w/v).
Glycyrrhizae radix (Glycyrrhiza uralensis) extract was obtained from ethanolic extracts (1:10, w/v).
The weight ratio of Salvia miltiorrhiza extract, Angelica sinensis extract, and Glycyrrhiza uralensis extract was 2:1:1, respectively, based on the dried weights of the raw herbs used.

| SMILES | ratio of the intima area to the media area, thoracic aorta section [1] | ratio of the intima area to the media area, aortic arch section [1] | ratio of the intima area to the media area, abdominal aorta section [1] | cell viability of the HASMCs ([2]; 1 μg/mL for 24 hr) | cell viability of the HASMCs ([2]; 1.25 μg/mL for 24 hr) | cell viability of the HASMCs ([2]; 10 μg/mL for 24 hr) | cell viability of the HASMCs ([2]; 20 μg/mL for 24 hr) | activated caspase-3 (17 kD) after oxLDL treatment (caspase-3) | oxLDL induced IL-1β production (IL-1β) | oxLDL induced IL-1ra production (IL-1ra) | Inhibition (%) of atherosclerosis compared with control group (apoE (−) mice) [%] | Intima area (apoE (−) mice; mean ± S.D.) | Media area (apoE (−) mice; mean ± S.D.) | Intima/Media (ratio) (apoE (−) mice; mean ± S.D., CT 0.770) |
| --- | --- | --- | --- | --- | --- | --- | --- | --- | --- | --- | --- | --- | --- | --- |
| CC(C)(Sc1cc(C(C)(C)C)c(O)c(C(C)(C)C)c1)Sc1cc(C(C)(C)C)c(O)c(C(C)(C)C)c1 [probucol, reference compound] | about 0.03 | about 0.1 | about 0.33 | – | – | – | – | – | – | – | – | – | – | – |
| O=C(/C=C/c1ccc(O)c2c1[C@H](C(=O)O[C@H](Cc1ccc(O)c(O)c1)C(=O)O)[C@@H](c1ccc(O)c(O)c1)O2)O[C@H](Cc1ccc(O)c(O)c1)C(=O)O [salvianolic acid B] | about 0.02 | about 0.07 | about 0.26 | 68.3% (±5.3%) | 57.5% (±14.4%) | 57.6% (±18.7%) | 38.3% (±18.8%) | no activated caspase-3 was observed | inhibit | inhibit | 83 | 1,563 ± 2,504 10^3 μm^2 | 9,763 ± 2,239 10^3 μm^2 | 0.128 ± 0.170 |
